Here are results for four compounds from US20100216817A1, “Antitumoral Tetrahydro-Pyrimidines” (Pharma Mar SA, priority 2005, published 2010).

In one assay the test system is PANC1. Kind of assay: SRB colorimetric cell growth inhibition assay. Conditions: for GI50 / CC50: Homo sapiens, PANC-1, 48 h; for CC50: read-out: LC50; for TGI: PANC1, pancreas, 48 hours exposure.
The test system of another assay is DU-145. Kind of assay: SRB colorimetric cell growth inhibition assay. Conditions: for TGI: DU-145, prostate, 48 hours exposure; for GI50 / CC50: Homo sapiens, DU-145, 48 h; for CC50: read-out: LC50.
A further assay concerns SK-BR3. The experiment in a line: SRB colorimetric cell growth inhibition assay. Conditions: for GI50 / CC50: Homo sapiens, SK-BR-3, 48 h; for CC50: read-out: LC50; for TGI: SK-BR3, breast, 48 hours exposure.
The next assay concerns SK-MEL-28. Kind of assay: SRB colorimetric cell growth inhibition assay. Conditions: for GI50 / CC50: Homo sapiens, SK-MEL-28, 48 h; for CC50: read-out: LC50; for TGI: SK-MEL-28, melanoma, 48 hours exposure.
The next assay concerns A549. Kind of assay: SRB colorimetric cell growth inhibition assay. Conditions: for TGI: A549, NSCL, 48 hours exposure; for GI50 / CC50: Homo sapiens, A549, 48 h; for CC50: read-out: LC50.
A further assay has as its system LOVO-DOX. Kind of assay: SRB colorimetric cell growth inhibition assay. The settings on record: for GI50 / CC50: Homo sapiens, 48 h; for CC50: read-out: LC50; for TGI: LOVO-DOX, colon (MDR), 48 hours exposure.
In another assay the test system is IGROV. Kind of assay: SRB colorimetric cell growth inhibition assay. The settings on record: for GI50 / CC50: Homo sapiens, 48 h; for CC50: read-out: LC50; for TGI: ovary, 48 hours exposure.
Another assay has as its system HELA. The experiment in a line: SRB colorimetric cell growth inhibition assay. The settings on record: for TGI: HELA, cervix, 48 hours exposure; for GI50 / CC50: Homo sapiens, HeLa, 48 h; for CC50: read-out: LC50.
The next assay relates to LOVO. Kind of assay: SRB colorimetric cell growth inhibition assay. The settings on record: for GI50 / CC50: Homo sapiens, LoVo, 48 h; for CC50: read-out: LC50; for TGI: LOVO, colon, 48 hours exposure.
The test system of a further assay is IGROV-ET. The experiment in a line: SRB colorimetric cell growth inhibition assay. The settings on record: for GI50 / CC50: Homo sapiens, 48 h; for CC50: read-out: LC50; for TGI: IGROV-ET, ovary, 48 hours exposure.
The test system of another assay is HT29. Kind of assay: SRB colorimetric cell growth inhibition assay. Conditions: for TGI: HT29, colon, 48 hours exposure; for GI50 / CC50: Homo sapiens, HT-29, 48 h; for CC50: read-out: LC50.
A further assay concerns HELA-APL. Kind of assay: SRB colorimetric cell growth inhibition assay. Conditions: for TGI: HELA-APL, cervix, Aplidine resistant, 48 hours exposure; for GI50 / CC50: Homo sapiens, 48 h; for CC50: read-out: LC50.
For the next assay, the system named is Streptococcus fecalis. The settings on record: J. Org. Chem. 1992, 57, 3832-3835; cited from earlier work.
For the next assay, the system named is Bacteroides fragilis. Conditions: Tetrahedron 1994, 50, 3415-3426; cited from earlier work.
The next assay concerns Staphylococcus aureus. Conditions: cited from earlier work.
The subject of assay [1] is Peptococcus assaccharolyticus. Conditions: Tetrahedron 1994, 50, 3415-3426; cited from earlier work.
The next assay concerns Escherichia coli. Conditions: cited from earlier work.
A further assay deals with Pseudomonas aeruginosa. Conditions: cited from earlier work.
The subject of another assay is Clostridium perfringens. Conditions: Tetrahedron 1994, 50, 3415-3426; cited from earlier work.
A further assay has as its system LN-caP. Kind of assay: SRB colorimetric cell growth inhibition assay.
Setting [2] is: J. Org. Chem. 1992, 57, 3832-3835.
Where [3] appears, read: Tetrahedron 1994, 50, 3415-3426.

Like-named read-outs stand apart in the source and are kept apart here. Some results are limits rather than exact numbers.

In the case of `N=C(N)NCCCCN1CCCN=C1CCCCCCCC=O` [Compound B], the GI50 in the assay on PANC1, in the assay with DU-145, in the assay on SK-BR3, in the assay on SK-MEL-28, with A549 and in the assay on LOVO-DOX was greater than 9290 nM throughout. The GI50 with IGROV, in the assay on HELA, in the assay with LOVO, in the assay with IGROV-ET, with HT29 and with HELA-APL was greater than 9290 nM throughout. The CC50 with PANC1, in the assay with DU-145, in the assay on SK-BR3, in the assay with SK-MEL-28, in the assay on A549 and in the assay on LOVO-DOX was greater than 9290 nM throughout. Besides, the CC50 with IGROV, in the assay on HELA, in the assay on LOVO, in the assay with IGROV-ET, with HT29 and with HELA-APL was greater than 9290 nM in each case. The TGI with PANC1, with DU-145, with SK-BR3, in the assay with SK-MEL-28, in the assay with A549 and with LOVO-DOX was greater than 9.29E−6 Molar in each case. The TGI with IGROV, in the assay on HELA, with LOVO, in the assay on IGROV-ET, with HT29 and with HELA-APL was greater than 9.29E−6 Molar in each case.
In the case of Phloeodictine A, the MIC in the assay on Streptococcus fecalis was 5 µg/mL; in the assay with Bacteroides fragilis, 1 µg/mL; in the assay with Staphylococcus aureus (setting [2]), 1 µg/mL; in the assay on Staphylococcus aureus (setting [3]), 3 µg/mL; in assay [1], 10 µg/mL; in the assay with Escherichia coli (setting [2]), 1 µg/mL. For the same compound, the MIC was 3 µg/mL in the assay on Escherichia coli (setting [3]), 10 µg/mL in the assay with Pseudomonas aeruginosa (setting [2]), 30 µg/mL with Pseudomonas aeruginosa (setting [3]) and 30 µg/mL in the assay with Clostridium perfringens.
For the compound Phloeodictine B, the MIC with Streptococcus fecalis was greater than 15 µg/mL; in the assay with Bacteroides fragilis, greater than 30 µg/mL; with Staphylococcus aureus (setting [2]), 3 µg/mL; in the assay on Staphylococcus aureus (setting [3]) it was 30 µg/mL; in assay [1], greater than 30 µg/mL; with Escherichia coli (setting [2]) it was 30 µg/mL. Besides, the figures for the MIC with Escherichia coli (setting [3]), in the assay on Pseudomonas aeruginosa (setting [2]) and with Clostridium perfringens were 30 µg/mL, greater than 30 µg/mL and greater than 30 µg/mL, respectively.
As for `CCCCCCC#C/C=C\CCCCCCCC1=NCCCN1CCCCNC(=N)N` [Compound A], the GI50 was 333 nM in the assay with LN-caP (Homo sapiens, LNCaP, 48 h); 535 nM with PANC1; 424 nM with DU-145; 789 nM with SK-BR3; 649 nM in the assay on SK-MEL-28; 1220 nM with A549. For the same compound, the GI50 was 1780 nM with LOVO-DOX; 579 nM with IGROV; 801 nM in the assay on HELA; 475 nM with LOVO; 463 nM with IGROV-ET; 1010 nM in the assay on HT29. Moreover, growth in the assay on HELA-APL was halved (GI50) at 540 nM. The CC50 in the assay on LN-caP (Homo sapiens, LNCaP, 48 h, read-out: LC50) worked out at 1370 nM; in the assay with PANC1, 2910 nM; in the assay on DU-145, 1830 nM; in the assay with SK-BR3, 1810 nM; with SK-MEL-28, 7660 nM; with A549 it was 12500 nM. The CC50 with LOVO-DOX was 13000 nM; in the assay with IGROV, 5310 nM; with HELA, 1040 nM; in the assay on LOVO, 1410 nM; with IGROV-ET, 4420 nM; in the assay with HT29, 8420 nM. Further, the CC50 in the assay on HELA-APL came out at 2110 nM. Moreover, the TGI was 6.73E−7 Molar with LN-caP (LN-caP, prostate, 48 hours exposure); 1.16E−6 Molar with PANC1; 8.80E−7 Molar in the assay on DU-145; 1.20E−6 Molar with SK-BR3; 2.49E−6 Molar with SK-MEL-28; 3.61E−6 Molar in the assay on A549. The TGI in the assay with LOVO-DOX worked out at 5.14E−6 Molar; in the assay on IGROV, 1.53E−6 Molar; in the assay on HELA it was 2.42E−6 Molar; in the assay with LOVO it was 8.17E−7 Molar; with IGROV-ET, 1.26E−6 Molar; with HT29 it was 2.98E−6 Molar. In the assay with HELA-APL, this compound had a TGI of 1.07E−6 Molar.
